For 32 molecules, Ki results are on record in patent publication US11014929B2, “Pyrazolopyrimidine compounds and uses thereof” (Incyte Corporation, priority 2016, dated 2021).

Some results are limits rather than exact numbers.

For the assay, the target named is HPK1 (Homo sapiens (Human), UniProt Q92918). Put plainly: HPK1 Kinase Binding Assay. To be noted: LanthaScreen tracer 222 binding, active HPK1, one hour incubation at 25° C. The method, then: A stock solution of 1 mM test compound was prepared in DMSO. The compound plate was prepared by 3-fold and 11-point serial dilutions. 0.1 μL of the compound in DMSO was transferred from the compound plate to the white 384 well polystyrene plates. The assay buffer contained 50 mM HEPES, pH 7.5, 0.01% Tween-20, 5 mM MgCl2, 0.01% BSA, and 5 mM DTT. 5 μl of 4 nM active HPK1 (SignalChem M23-11G) prepared in the buffer was added to the plate. The enzyme concentration given was based on the given stock concentration reported by the vender. 5 μl of 18 nM tracer 222 (ThermoFisher PV6121) and 4 nM LanthaScreen Eu-Anti GST antibody (ThermoFisher PV5595) were added. After one hour incubation at 25° C., the plates were read on a PHERAstar FS plate reader (BMG Labtech). Ki values were determined.
Sequence of HPK1 (Q92918 1-346): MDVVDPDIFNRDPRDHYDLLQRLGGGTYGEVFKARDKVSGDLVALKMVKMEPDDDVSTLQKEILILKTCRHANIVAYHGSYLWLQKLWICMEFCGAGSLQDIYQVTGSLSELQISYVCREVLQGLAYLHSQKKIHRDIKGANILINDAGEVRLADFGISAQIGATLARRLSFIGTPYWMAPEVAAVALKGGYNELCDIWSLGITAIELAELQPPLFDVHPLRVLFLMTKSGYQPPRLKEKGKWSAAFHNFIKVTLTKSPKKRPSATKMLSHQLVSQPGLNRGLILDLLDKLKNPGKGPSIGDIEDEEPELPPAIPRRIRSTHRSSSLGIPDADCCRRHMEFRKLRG
(In general: TR-FRET usually uses a lanthanide donor and a delayed reading to cut background.)
For `COc1cccc(F)c1-c1ncc2[nH]nc(OCc3ccccc3)c2n1` [Example 89, 3-(Benzyloxy)-5-(2-fluoro-6-methoxyphenyl)-1H-pyrazolo[4,3-d]pyrimidine], the Ki is no more than 100 nM.

In turn, `COc1cccc(F)c1-c1ncc2[nH]nc(-c3ccnc(N4CCNCC4)c3)c2n1` [Example 50, 5-(2-Fluoro-6-methoxyphenyl)-3-(2-(piperazin-1-yl)pyridin-4-yl)-1H-pyrazolo[4,3-d]pyrimidine] showed a Ki of no more than 100 nM.

As to `COc1cccc(F)c1-c1ncc2[nH]nc(-c3ccc(C(=O)NC4CCCC4)cc3)c2n1` [Example 32, N-Cyclopentyl-4-(5-(2-fluoro-6-methoxyphenyl)-1H-pyrazolo[4,3-d]pyrimidin-3-yl)benzamide], the Ki was no more than 100 nM.

As to `CNCc1cc(F)c(-c2ncc3[nH]nc(-c4ccc(N5CCN(CCOC)CC5)cc4)c3n2)c(F)c1` [Example 123, 1-(3,5-Difluoro-4-(3-(4-(4-(2-methoxyethyl)piperazin-1-yl)phenyl)-1H-pyrazolo[4,3-d]pyrimidin-5-yl)phenyl)-N-methylmethanamine], the Ki is no more than 100 nM.

On to `CN1CCN(c2ccc(-c3n[nH]c4cnc(-c5ccccc5F)nc34)cc2)CC1` [Example 1, 5-(2-Fluorophenyl)-3-[4-(4-methylpiperazin-1-yl)phenyl]-1H-pyrazolo[4,3-d]pyrimidine], for which the Ki is no more than 100 nM.

For `COc1cccc(F)c1-c1ncc2[nH]nc(-c3ccsc3)c2n1` [Example 21, 5-(2-Fluoro-6-methoxyphenyl)-3-(thiophen-3-yl)-1H-pyrazolo[4,3-d]pyrimidine], the Ki is no more than 100 nM.

`CNCc1cc(F)c(-c2ncc3[nH]nc(-c4ccc(OC)cc4)c3n2)c(F)c1` [Example 63, 1-(3,5-Difluoro-4-(3-(4-methoxyphenyl)-1H-pyrazolo[4,3-d]pyrimidin-5-yl)phenyl)-N-methylmethanamine] displayed a Ki of no more than 100 nM.

`CNC(=O)c1ccc(-c2n[nH]c3cnc(-c4c(F)cccc4OC)nc23)cc1` [Example 38, 4-(5-(2-Fluoro-6-methoxyphenyl)-1H-pyrazolo[4,3-d]pyrimidin-3-yl)-N-methylbenzamide] yielded a Ki of no more than 100 nM.

Molecule `COc1cccc(F)c1-c1ncc2[nH]nc(-c3cnn(C)c3)c2n1` [Example 14, 5-(2-Fluoro-6-methoxyphenyl)-3-(1-methyl-1H-pyrazol-4-yl)-1H-pyrazolo[4,3-d]pyrimidine] gave a Ki of no more than 100 nM.

`COc1cccc(F)c1-c1ncc2[nH]nc(-c3ccc(C(F)(F)F)cc3)c2n1` [Example 18, 5-(2-Fluoro-6-methoxyphenyl)-3-(4-(trifluoromethyl)phenyl)-1H-pyrazolo[4,3-d]pyrimidine] had a Ki of 100 to 500 nM.

The molecule `COc1cccc(-c2n[nH]c3cnc(-c4c(F)cccc4OC)nc23)c1` [Example 19, 5-(2-Fluoro-6-methoxyphenyl)-3-(3-methoxyphenyl)-1H-pyrazolo[4,3-d]pyrimidine] displayed a Ki of no more than 100 nM.

For `CNCc1cc(F)c(-c2ncc3[nH]nc(-c4ccc(N5CCN(S(C)(=O)=O)CC5)nc4)c3n2)c(F)c1` [Example 74, 1-(3,5-Difluoro-4-(3-(6-(4-(methylsulfonyl)piperazin-1-yl)pyridin-3-yl)-1H-pyrazolo[4,3-d]pyrimidin-5-yl)phenyl)-N-methylmethanamine], the Ki is no more than 100 nM.

For the molecule `CNC1CCc2cc(F)c(-c3ncc4[nH]nc(-c5ccc(N6CCOCC6)nc5)c4n3)c(F)c2C1` (centres unmarked) [Example 115, 6,8-Difluoro-N-methyl-7-(3-(6-morpholinopyridin-3-yl)-1H-pyrazolo[4,3-d]pyrimidin-5-yl)-1,2,3,4-tetrahydronaphthalen-2-amine], the Ki was no more than 100 nM.

With `COc1cccc(F)c1-c1ncc2[nH]nc(-c3cccc(CN4CCN(C)CC4)c3)c2n1` [Example 25, 5-(2-Fluoro-6-methoxyphenyl)-3-(3-((4-methylpiperazin-1-yl)methyl)phenyl)-1H-pyrazolo[4,3-d]pyrimidine], the Ki is no more than 100 nM.

In turn, `CCN1CCN(c2ccc(-c3n[nH]c4cnc(-c5c(F)cc(CNC)cc5F)nc34)cc2)CC1` [Example 67, 1-(4-(3-(4-(4-Ethylpiperazin-1-yl)phenyl)-1H-pyrazolo[4,3-d]pyrimidin-5-yl)-3,5-difluorophenyl)-N-methylmethanamine] returned a Ki of no more than 100 nM.

Molecule `CN1CCN(c2ccc(-c3n[nH]c4cnc(-c5c(F)ccc6c5CCNC6)nc34)cc2)CC1` [Example 56, 6-Fluoro-5-(3-(4-(4-methylpiperazin-1-yl)phenyl)-1H-pyrazolo[4,3-d]pyrimidin-5-yl)-1,2,3,4-tetrahydroisoquinoline] gave a Ki of no more than 100 nM.

On to `COc1ccccc1-c1ncc2[nH]nc(-c3ccc(N4CCN(C)CC4)cc3)c2n1` [Example 3, 5-(2-Methoxyphenyl)-3-(4-(4-methylpiperazin-1-yl)phenyl)-1H-pyrazolo[4,3-d]pyrimidine], for which the Ki was no more than 100 nM.

As to `NC1CCc2cc(F)c(-c3ncc4[nH]nc(-c5ccc(N6CCOCC6)nc5)c4n3)c(F)c21` (centres unmarked) [Example 118, 5,7-Difluoro-6-(3-(6-morpholinopyridin-3-yl)-1H-pyrazolo[4,3-d]pyrimidin-5-yl)-2,3-dihydro-1H-inden-1-amine], the Ki is no more than 100 nM.

`COc1cccc(F)c1-c1ncc2[nH]nc(-c3ccc(CN)cc3)c2n1` [Example 41, (4-(5-(2-Fluoro-6-methoxyphenyl)-1H-pyrazolo[4,3-d]pyrimidin-3-yl)phenyl)methanamine] came in with a Ki of no more than 100 nM.

Molecule `COc1ccc(F)c(F)c1-c1ncc2[nH]nc(-c3ccc(N4CCN(C)CC4)cc3)c2n1` [Example 45, 5-(2,3-Difluoro-6-methoxyphenyl)-3-(4-(4-methylpiperazin-1-yl)phenyl)-1H-pyrazolo[4,3-d]pyrimidine] displayed a Ki of no more than 100 nM.

The molecule `CNCc1cc(C)c(-c2ncc3[nH]nc(-c4ccc(N5CCN(C)CC5)cc4)c3n2)cn1` [Example 104, N-Methyl-1-(4-methyl-5-(3-(4-(4-methylpiperazin-1-yl)phenyl)-1H-pyrazolo[4,3-d]pyrimidin-5-yl)pyridin-2-yl)methanamine] gave a Ki of no more than 100 nM.

With `CNCc1cc(F)c(-c2ncc3[nH]nc(-c4ccc(C5CCOCC5)cc4)c3n2)c(F)c1` [Example 66, 1-(3,5-Difluoro-4-(3-(4-(tetrahydro-2H-pyran-4-yl)phenyl)-1H-pyrazolo[4,3-d]pyrimidin-5-yl)phenyl)-N-methylmethanamine], the Ki is no more than 100 nM.

In turn, `CCN1CCN(c2ccc(-c3n[nH]c4cnc(-c5c(F)cccc5OC)nc34)cc2)CC1` [Example 37, 3-(4-(4-Ethylpiperazin-1-yl)phenyl)-5-(2-fluoro-6-methoxyphenyl)-1H-pyrazolo[4,3-d]pyrimidine] had a Ki of no more than 100 nM.

For `CN1CCN(c2ccc(-c3n[nH]c4cnc(-c5ccc6cccnc6c5F)nc34)cc2)CC1` [Example 101, 8-Fluoro-7-(3-(4-(4-methylpiperazin-1-yl)phenyl)-1H-pyrazolo[4,3-d]pyrimidin-5-yl)quinoline], the Ki was no more than 100 nM.

In turn, `Cc1ccccc1-c1ncc2[nH]nc(-c3ccc(N4CCN(C)CC4)cc3)c2n1` [Example 2, 3-(4-(4-Methylpiperazin-1-yl)phenyl)-5-o-tolyl-1H-pyrazolo[4,3-d]pyrimidine] showed a Ki of no more than 100 nM.

Molecule `CN1CCN(c2ccc(-c3n[nH]c4cnc(-c5cccc(F)c5F)nc34)cc2)CC1` [Example 44, 5-(2,3-Difluorophenyl)-3-(4-(4-methylpiperazin-1-yl)phenyl)-1H-pyrazolo[4,3-d]pyrimidine] gave a Ki of no more than 100 nM.

Turning to `Cc1c2c(cc(F)c1-c1ncc3[nH]nc(-c4ccc(N5CCOCC5)nc4)c3n1)CCNC2` [Example 109, 4-(5-(5-(6-Fluoro-8-methyl-1,2,3,4-tetrahydroisoquinolin-7-yl)-1H-pyrazolo[4,3-d]pyrimidin-3-yl)pyridin-2-yl)morpholine], the Ki was no more than 100 nM.

As for `Cc1c2c(cc(F)c1-c1ncc3[nH]nc(-c4ccc(N5CCN(C)CC5)cc4)c3n1)CCNC2` [Example 111, 6-Fluoro-8-methyl-7-(3-(4-(4-methylpiperazin-1-yl)phenyl)-1H-pyrazolo[4,3-d]pyrimidin-5-yl)-1,2,3,4-tetrahydroisoquinoline], the inhibition constant (Ki) is no more than 100 nM.

Turning to `CNCc1cc(F)c(-c2ncc3[nH]nc(-c4ccc(N5CCO[C@@H](COC)C5)nc4)c3n2)c(C(F)(F)F)c1` [Example 126, (R)-1-(3-Fluoro-4-(3-(6-(2-(methoxymethyl)morpholino)pyridin-3-yl)-1H-pyrazolo[4,3-d]pyrimidin-5-yl)-5-(trifluoromethyl)phenyl)-N-methylmethanamine], the Ki was no more than 100 nM.

Molecule `CNCc1cc(F)c(-c2ncc3[nH]nc(-c4cnn(C)c4)c3n2)c(OC)c1` [Example 86, 1-(3-Fluoro-5-methoxy-4-(3-(1-methyl-1H-pyrazol-4-yl)-1H-pyrazolo[4,3-d]pyrimidin-5-yl)phenyl)-N-methylmethanamine] displayed a Ki of no more than 100 nM.

The molecule `CN1CCN(c2ccc(-c3n[nH]c4cnc(-c5cccc(C(N)=O)c5F)nc34)cc2)CC1` [Example 46, 2-Fluoro-3-(3-(4-(4-methylpiperazin-1-yl)phenyl)-1H-pyrazolo[4,3-d]pyrimidin-5-yl)benzamide] displayed an inhibition constant (Ki) of no more than 100 nM.

Molecule `COc1cccc(F)c1-c1ncc2[nH]nc(/C=C/c3ccc(N4CCN(C)CC4)cc3)c2n1` [Example 55, (E)-5-(2-Fluoro-6-methoxyphenyl)-3-(4-(4-methylpiperazin-1-yl)styryl)-1H-pyrazolo[4,3-d]pyrimidine] returned an inhibition constant (Ki) of no more than 100 nM.

One may read the Ki as a dissociation constant, usually derived from enzyme kinetics or from competition with a known ligand.
